Data taken from ChEMBL document CHEMBL1201862, “PubChem BioAssay data set” (2004).
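1) Cells in 96-well plates. 2) Compound, 48 h, 5 concentrations. 3) Linear interpolation between surrounding doses. 4) Unreached endpoint = highest concentration. GI50 = concentration required for 50% inhibition of growth.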 Activity calls are given as the source filed them. No stated cut-off is given here; in the data, active = GI50 up to about 1.1 µM and inactive = higher.

What was measured:
Test in all cases: NCI anticancer screen, dose series, 48 h
IGROV-1 = tested on: IGROV-1
COLO 205 = tested on: COLO 205
HCC 2998 = tested on: HCC 2998
RXF 393 = tested on: RXF 393
CAKI-1 = tested on: CAKI-1
SF-539 = tested on: SF-539
SK-MEL-2 = tested on: SK-MEL-2
SR = tested on: SR
OVCAR-3 = tested on: OVCAR-3
ACHN = tested on: ACHN
SF-295 = tested on: SF-295
DU-145 = tested on: DU-145
HOP-62 = tested on: HOP-62
HL-60 = tested on: HL-60
UACC-62 = tested on: UACC-62
CCRF-CEM = tested on: CCRF-CEM
SNB-75 = tested on: SNB-75
SK-MEL-28 = tested on: SK-MEL-28
SK-MEL-5 = tested on: SK-MEL-5
UACC-257 = tested on: UACC-257

SMILES	GI50 (IGROV-1)	GI50 (COLO 205)	GI50 (HCC 2998)	GI50 (RXF 393)	GI50 (CAKI-1)	GI50 (SF-539)	GI50 (SK-MEL-2)	GI50 (SR)	GI50 (OVCAR-3)	GI50 (ACHN)	GI50 (SF-295)	GI50 (DU-145)	GI50 (HOP-62)	GI50 (HL-60)	GI50 (UACC-62)	GI50 (CCRF-CEM)	GI50 (SNB-75)	GI50 (SK-MEL-28)	GI50 (SK-MEL-5)	GI50 (UACC-257)
C=C(Cl)C(C)(Cl)CCC(Cl)C(C)C (stereo not drawn)	> 100 µM (inactive)	> 100 µM (inactive)	> 100 µM (inactive)	> 100 µM (inactive)	> 100 µM (inactive)	> 100 µM (inactive)	> 100 µM (inactive)	24.8 µM (inactive)	> 100 µM (inactive)	> 100 µM (inactive)	> 100 µM (inactive)	> 100 µM (inactive)	> 100 µM (inactive)	44.3 µM (inactive)	> 100 µM (inactive)	38.7 µM (inactive)	24.6 µM (inactive)	> 100 µM (inactive)	> 100 µM (inactive)	> 100 µM (inactive)
Oc1cc(-c2cccc3ccccc23)nc2ncccc12	0.0611 µM (active)	0.0154 µM (active)	0.0745 µM (active)	0.015 µM (active)	0.0242 µM (active)	0.0197 µM (active)	0.0178 µM (active)	0.00565 µM (active)	0.00457 µM (active)	0.0325 µM (active)	0.0388 µM (active)	0.0418 µM (active)	0.962 µM (active)	0.00401 µM (active)	0.0102 µM (active)	0.0245 µM (active)	0.00684 µM (active)	0.0546 µM (active)	0.0021 µM (active)	0.00152 µM (active)
CC(C)CN1CN(c2ccccc2)C2(CCN(CC(C)(c3ccc(F)cc3)C3OCCO3)CC2)C1=O (stereo not drawn)	–	1.65 µM (inactive)	2.39 µM (inactive)	6.25 µM (inactive)	12.1 µM (inactive)	5.18 µM (inactive)	2.89 µM (inactive)	2.77 µM (inactive)	10.3 µM (inactive)	4.16 µM (inactive)	3.87 µM (inactive)	4.1 µM (inactive)	3.45 µM (inactive)	2.68 µM (inactive)	6.92 µM (inactive)	3.55 µM (inactive)	7.33 µM (inactive)	3.18 µM (inactive)	2.02 µM (inactive)	3.04 µM (inactive)
Cc1c2c(C#N)nccc2c(C)c2c1c1ccccc1n2Cc1ccccc1	> 100 µM (inactive)	> 100 µM (inactive)	> 100 µM (inactive)	> 100 µM (inactive)	> 100 µM (inactive)	> 100 µM (inactive)	> 100 µM (inactive)	36.1 µM (inactive)	> 100 µM (inactive)	> 100 µM (inactive)	> 100 µM (inactive)	> 100 µM (inactive)	> 100 µM (inactive)	> 100 µM (inactive)	> 100 µM (inactive)	> 100 µM (inactive)	57.8 µM (inactive)	> 100 µM (inactive)	> 100 µM (inactive)	> 100 µM (inactive)
CN(c1ccccc1)S(=O)(=O)c1ccccc1[N+](=O)[O-]	> 100 µM (inactive)	> 100 µM (inactive)	> 100 µM (inactive)	> 100 µM (inactive)	> 100 µM (inactive)	> 100 µM (inactive)	> 100 µM (inactive)	81.3 µM (inactive)	> 100 µM (inactive)	> 100 µM (inactive)	> 100 µM (inactive)	> 100 µM (inactive)	> 100 µM (inactive)	> 100 µM (inactive)	> 100 µM (inactive)	44.3 µM (inactive)	96.6 µM (inactive)	> 100 µM (inactive)	> 10 µM (inactive)	> 100 µM (inactive)
CCOC(=O)C(NC(=O)c1ccccc1)(Nc1ccc(S(=O)(=O)Nc2cc(C)on2)cc1)C(F)(F)F (stereo not drawn)	> 100 µM (inactive)	> 100 µM (inactive)	> 100 µM (inactive)	> 100 µM (inactive)	> 100 µM (inactive)	> 100 µM (inactive)	> 100 µM (inactive)	> 100 µM (inactive)	> 100 µM (inactive)	> 100 µM (inactive)	> 100 µM (inactive)	> 100 µM (inactive)	> 100 µM (inactive)	> 100 µM (inactive)	> 100 µM (inactive)	> 100 µM (inactive)	> 100 µM (inactive)	> 100 µM (inactive)	> 100 µM (inactive)	> 10 µM (inactive)
CC(C)C(NC(=O)C(Cc1ccccc1)NC(=O)[C@H]1CCC[C@H]1NC(=O)C(Cc1ccc(OC(C)(C)C)cc1)NC(=O)OC(C)(C)C)C(N)=O (stereo partly drawn)	31.3 µM (inactive)	19.6 µM (inactive)	16.5 µM (inactive)	81.1 µM (inactive)	95.9 µM (inactive)	16.5 µM (inactive)	26 µM (inactive)	34.9 µM (inactive)	25.1 µM (inactive)	45.7 µM (inactive)	17.3 µM (inactive)	54.2 µM (inactive)	16.6 µM (inactive)	34.8 µM (inactive)	13.8 µM (inactive)	16.6 µM (inactive)	11.4 µM (inactive)	18.4 µM (inactive)	9.95 µM (inactive)	> 10 µM (inactive)
C/C(=N\NC(N)=O)C(CN(C)C)C(c1ccccc1)c1c(O)c2ccccc2oc1=O (stereo not drawn)	> 100 µM (inactive)	36.4 µM (inactive)	> 100 µM (inactive)	88.7 µM (inactive)	> 100 µM (inactive)	> 100 µM (inactive)	> 100 µM (inactive)	> 100 µM (inactive)	> 100 µM (inactive)	> 100 µM (inactive)	> 100 µM (inactive)	> 100 µM (inactive)	> 100 µM (inactive)	38.4 µM (inactive)	> 100 µM (inactive)	90.8 µM (inactive)	> 100 µM (inactive)	> 100 µM (inactive)	> 100 µM (inactive)	> 100 µM (inactive)
C[Si](C)(c1ccccc1)[C@H]1CCCC=C1CCNC1c2ccccc2CCc2ccccc21	49.7 µM (inactive)	38.9 µM (inactive)	> 100 µM (inactive)	80 µM (inactive)	73.5 µM (inactive)	> 100 µM (inactive)	> 100 µM (inactive)	36.6 µM (inactive)	> 100 µM (inactive)	67.5 µM (inactive)	40.6 µM (inactive)	> 100 µM (inactive)	> 100 µM (inactive)	1.79 µM (inactive)	61.4 µM (inactive)	1.07 µM (active)	67.3 µM (inactive)	> 100 µM (inactive)	33.6 µM (inactive)	52.4 µM (inactive)
CC(C)(C(=O)N(C(=O)N1CCN(c2ccccc2)CC1)S(=O)(=O)c1ccccc1)c1ccc(Cl)cc1	–	20.7 µM (inactive)	27.7 µM (inactive)	> 100 µM (inactive)	34.4 µM (inactive)	61.8 µM (inactive)	21.3 µM (inactive)	22.8 µM (inactive)	18.7 µM (inactive)	19.5 µM (inactive)	8.63 µM (inactive)	58.5 µM (inactive)	27.5 µM (inactive)	24.8 µM (inactive)	40.6 µM (inactive)	3.94 µM (inactive)	77.1 µM (inactive)	> 100 µM (inactive)	35.7 µM (inactive)	46.7 µM (inactive)
